Measured values taken from ChEMBL document CHEMBL1149069, “SB-202742, a novel beta-lactamase inhibitor isolated from Spondias mombin” (J Nat Prod, 1994).
Activity calls are given as the source filed them. The calls are words filed in the database; no cut-off is given here.

Biological target: Beta-lactamase TEM-2 (Escherichia coli) (UniProt P62593)
Assay: Inhibition of Escherichia coli W3110 beta-lactamase TEM2 assessed as inhibition of nitrocefin hydrolysis at 1 ug/ml pre-incubated for 5 mins by microtiter plate assay

CC/C=C\C/C=C\C/C=C\CCCCCCCc1cccc(O)c1C(=O)O
Activity: Active
